According to ChEMBL document CHEMBL1134111, “Nucleoside analogues as highly potent and selective inhibitors of herpes simplex virus thymidine kinase” (Bioorg Med Chem Lett, 2001):

Columns and labels:
[1] = molecular target: T1, Thymidine kinase (Human herpesvirus 2, UniProt Q6L709); assay: Inhibitory activity against HSV-2 Thymidine Kinase (HSV-2 TK)
T1 sequence (Q6L709 whole entry): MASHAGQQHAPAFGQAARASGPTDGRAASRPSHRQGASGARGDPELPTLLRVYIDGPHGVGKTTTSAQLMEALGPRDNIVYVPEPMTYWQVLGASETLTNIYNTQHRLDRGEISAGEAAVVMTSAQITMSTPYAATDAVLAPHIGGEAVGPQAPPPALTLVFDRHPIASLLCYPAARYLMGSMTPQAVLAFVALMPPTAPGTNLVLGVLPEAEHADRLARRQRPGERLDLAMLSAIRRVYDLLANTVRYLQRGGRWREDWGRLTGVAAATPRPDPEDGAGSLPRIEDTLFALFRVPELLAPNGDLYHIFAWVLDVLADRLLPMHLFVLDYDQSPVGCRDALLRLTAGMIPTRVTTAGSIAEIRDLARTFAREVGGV

[2] = molecular target: T2, Thymidine kinase (Human herpesvirus 1 (strain SC16) (HHV-1) (Human herpes simplex virus1), UniProt P06479); assay: Inhibitory activity against HSV-1 Thymidine Kinase (HSV-1 TK)
T2 sequence (P06479 whole entry): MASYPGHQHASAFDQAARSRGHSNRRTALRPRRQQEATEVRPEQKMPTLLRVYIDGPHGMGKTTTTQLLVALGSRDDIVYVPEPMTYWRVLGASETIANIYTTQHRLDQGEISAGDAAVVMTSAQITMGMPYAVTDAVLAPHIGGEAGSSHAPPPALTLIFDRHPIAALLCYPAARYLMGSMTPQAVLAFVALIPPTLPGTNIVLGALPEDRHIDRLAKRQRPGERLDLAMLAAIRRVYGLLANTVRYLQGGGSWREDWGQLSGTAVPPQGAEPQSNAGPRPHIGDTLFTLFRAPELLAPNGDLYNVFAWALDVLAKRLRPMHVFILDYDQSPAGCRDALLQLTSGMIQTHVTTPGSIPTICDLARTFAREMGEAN

SMILES | IC50 [1] | IC50 [2]
CCc1cn([C@H]2C[C@H](O)[C@@H](CNC(=O)C3c4ccccc4-c4ccccc43)O2)c(=O)[nH]c1=O | 5.2 nM | 28 nM
CCc1cn([C@H]2C[C@H](O)[C@@H](CNC(=O)C3c4ccccc4Sc4ccccc43)O2)c(=O)[nH]c1=O | 1.4 nM | 11.5 nM
CCc1cn([C@@H]2O[C@H](CNC(=O)C3c4ccccc4S(=O)(=O)c4c(Cl)cccc43)[C@@H](O)[C@@H]2F)c(=O)[nH]c1=O (some centres undefined) | 0.09 nM | 0.27 nM
CCc1cn([C@@H]2O[C@H](CNC(=O)C3c4ccccc4Oc4c(C)cccc43)[C@@H](O)[C@@H]2F)c(=O)[nH]c1=O (some centres undefined) | 0.19 nM | 1.6 nM
CCc1cn([C@@H]2O[C@H](CNC(=O)C3c4ccccc4S(=O)(=O)c4ccccc43)[C@@H](O)[C@@H]2F)c(=O)[nH]c1=O | 0.11 nM | 0.93 nM
CCc1cn([C@H]2C[C@H](O)[C@@H](CNC(=O)Cc3ccccc3Cl)O2)c(=O)[nH]c1=O | 30 nM | 100 nM
CCc1cn([C@@H]2O[C@H](CNC(=O)C3c4ccccc4Sc4c(Cl)cccc43)[C@@H](O)[C@@H]2F)c(=O)[nH]c1=O (some centres undefined) | 0.21 nM | 1.5 nM
CCc1cn([C@H]2C[C@H](O)[C@@H](CNC(=O)C3c4ccccc4N(C)c4ccccc43)O2)c(=O)[nH]c1=O | 2.6 nM | 23 nM
CCc1cn([C@H]2C[C@H](O)[C@@H](CNC(=O)Cc3ccccc3F)O2)c(=O)[nH]c1=O | 140 nM | 700 nM
CCc1cn([C@@H]2O[C@H](CNC(=O)C3c4cccc(C)c4Oc4c(C)cccc43)[C@@H](O)[C@@H]2F)c(=O)[nH]c1=O | 0.43 nM | 2.2 nM
CCc1cn([C@H]2C[C@H](O)[C@@H](CNC(=O)Cc3ccccc3C)O2)c(=O)[nH]c1=O | 60 nM | 200 nM
CCc1cn([C@H]2C[C@H](O)[C@@H](CNC(=O)Cc3c(C)cccc3C)O2)c(=O)[nH]c1=O | 8.4 nM | 40 nM
CCc1cn([C@H]2C[C@H](O)[C@@H](CNC(=O)c3c4ccccc4cc4ccccc34)O2)c(=O)[nH]c1=O | 420 nM | 1650 nM
CCc1cn([C@@H]2O[C@H](CNC(=O)C3c4ccccc4Oc4ccccc43)[C@@H](O)[C@@H]2F)c(=O)[nH]c1=O | 0.11 nM | 2.1 nM
CCc1cn([C@@H]2O[C@H](CNC(=O)C3c4ccccc4Oc4c(OC)cccc43)[C@@H](O)[C@@H]2F)c(=O)[nH]c1=O (some centres undefined) | 0.21 nM | 1.7 nM
CCc1cn([C@H]2C[C@H](O)[C@@H](CNC(=O)C3c4ccccc4S(=O)(=O)c4ccccc43)O2)c(=O)[nH]c1=O | 0.13 nM | 0.95 nM

SMILES | IC50 [1] | IC50 [2]
CCc1cn([C@@H]2O[C@H](CNC(=O)[C@H](C)Oc3cc(OC)c(Cl)cc3Cl)[C@@H](O)[C@@H]2F)c(=O)[nH]c1=O | 0.19 nM | 1.8 nM
CCc1cn([C@@H]2O[C@H](CNC(=O)C3c4cccc(Cl)c4Oc4c(Cl)cccc43)[C@@H](O)[C@@H]2F)c(=O)[nH]c1=O | 0.1 nM | 0.3 nM
CCc1cn([C@H]2C[C@H](O)[C@@H](CNC(=O)Cc3ccccc3)O2)c(=O)[nH]c1=O | 300 nM | 1000 nM
CCc1cn([C@@H]2O[C@H](CNC(=O)C3c4ccccc4Oc4c(-c5ccccc5)cccc43)[C@@H](O)[C@@H]2F)c(=O)[nH]c1=O (some centres undefined) | 0.14 nM | 0.66 nM
CCc1cn([C@H]2C[C@H](O)[C@@H](CNC(=O)Cc3ccccc3OC)O2)c(=O)[nH]c1=O | 70 nM | 300 nM
CCc1cn([C@H]2C[C@H](O)[C@@H](CNC(=O)Cc3ccccc3C(F)(F)F)O2)c(=O)[nH]c1=O | 90 nM | 200 nM
CCc1cn([C@@H]2O[C@H](CNC(=O)C3c4ccccc4C(C(F)(F)F)(C(F)(F)F)c4ccccc43)[C@@H](O)[C@@H]2F)c(=O)[nH]c1=O | 0.11 nM | 0.19 nM
CCc1cn([C@@H]2O[C@H](CNC(=O)C3c4ccccc4Sc4ccccc43)[C@@H](O)[C@@H]2F)c(=O)[nH]c1=O | 0.7 nM | 8.5 nM
CCc1cn([C@H]2C[C@H](O)[C@@H](CNC(=O)C3c4ccccc4CCc4ccccc43)O2)c(=O)[nH]c1=O | 44 nM | 260 nM
CCc1cn([C@@H]2O[C@H](CNC(=O)C3c4ccccc4C(C)(C)c4ccccc43)[C@@H](O)[C@@H]2F)c(=O)[nH]c1=O | 0.28 nM | 1.5 nM
CCc1cn([C@H]2C[C@H](O)[C@@H](CNC(=O)Cc3ccccc3-c3ccccc3)O2)c(=O)[nH]c1=O | 90 nM | 240 nM
CCc1cn([C@@H]2O[C@H](CNC(=O)C3c4ccccc4Oc4c(Cl)cccc43)[C@@H](O)[C@@H]2F)c(=O)[nH]c1=O (some centres undefined) | 0.14 nM | 0.85 nM
CCc1cn([C@@H]2O[C@H](CNC(=O)C3c4ccccc4Oc4c3cccc4C(F)(F)F)[C@@H](O)[C@@H]2F)c(=O)[nH]c1=O (some centres undefined) | 0.14 nM | 1 nM
CCc1cn([C@H]2C[C@H](O)[C@@H](CNC(=O)C3c4ccccc4Cc4ccccc43)O2)c(=O)[nH]c1=O | 1.2 nM | 7 nM
CCc1cn([C@H]2C[C@H](O)[C@@H](CNC(=O)C3c4ccccc4Oc4ccccc43)O2)c(=O)[nH]c1=O | 0.13 nM | 2.9 nM
CCc1cn([C@H]2C[C@H](O)[C@@H](CNC(=O)Cc3c(Cl)cccc3Cl)O2)c(=O)[nH]c1=O | 3.3 nM | 1 nM
